From ChEMBL document CHEMBL4706703, “Novel 3-benzylidene/benzylphthalide Mannich base derivatives as potential multifunctional agents for the treatment of Alzheimer's disease” (Bioorg Med Chem, 2021)
Calls of active or inactive are those of the source. No cut-off for these calls is given here.

Key:
[1] = molecular target: T1, Amine oxidase [flavin-containing] B (Homo sapiens, UniProt P27338); test: Inhibition of recombinant human MAOB at 10 uM using kynuramine as substrate preincubated for 30 mins followed by substrate addition and measured after 30 mins by fluorescence assay relative to control; settings: 0.5 h
T1 sequence (P27338 whole entry): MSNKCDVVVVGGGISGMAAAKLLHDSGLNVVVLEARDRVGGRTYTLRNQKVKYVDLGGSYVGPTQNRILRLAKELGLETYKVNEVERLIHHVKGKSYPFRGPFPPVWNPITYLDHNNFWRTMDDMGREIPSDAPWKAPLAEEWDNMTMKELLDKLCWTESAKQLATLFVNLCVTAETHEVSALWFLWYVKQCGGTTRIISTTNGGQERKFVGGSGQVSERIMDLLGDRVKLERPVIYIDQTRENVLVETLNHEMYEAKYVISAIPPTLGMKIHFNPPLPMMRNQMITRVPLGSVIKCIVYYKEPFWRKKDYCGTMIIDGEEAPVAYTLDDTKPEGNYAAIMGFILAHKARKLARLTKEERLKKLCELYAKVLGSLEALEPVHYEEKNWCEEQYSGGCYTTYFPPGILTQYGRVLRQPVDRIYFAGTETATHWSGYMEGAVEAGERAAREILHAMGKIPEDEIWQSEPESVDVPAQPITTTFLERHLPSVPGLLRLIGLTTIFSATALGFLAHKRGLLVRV

[2] = molecular target: butyrylcholinesterase (BuChE) (Rattus norvegicus, UniProt Q9JKC1); test: Inhibition of rat serum BuChE at 10 uM using butyrylthiocholine iodide as substrate incubated for 15 mins by Ellman's method relative to control; format: cell-free; settings: probe butyrylthiocholine iodide
Sequence of butyrylcholinesterase (BuChE) (Q9JKC1 whole entry): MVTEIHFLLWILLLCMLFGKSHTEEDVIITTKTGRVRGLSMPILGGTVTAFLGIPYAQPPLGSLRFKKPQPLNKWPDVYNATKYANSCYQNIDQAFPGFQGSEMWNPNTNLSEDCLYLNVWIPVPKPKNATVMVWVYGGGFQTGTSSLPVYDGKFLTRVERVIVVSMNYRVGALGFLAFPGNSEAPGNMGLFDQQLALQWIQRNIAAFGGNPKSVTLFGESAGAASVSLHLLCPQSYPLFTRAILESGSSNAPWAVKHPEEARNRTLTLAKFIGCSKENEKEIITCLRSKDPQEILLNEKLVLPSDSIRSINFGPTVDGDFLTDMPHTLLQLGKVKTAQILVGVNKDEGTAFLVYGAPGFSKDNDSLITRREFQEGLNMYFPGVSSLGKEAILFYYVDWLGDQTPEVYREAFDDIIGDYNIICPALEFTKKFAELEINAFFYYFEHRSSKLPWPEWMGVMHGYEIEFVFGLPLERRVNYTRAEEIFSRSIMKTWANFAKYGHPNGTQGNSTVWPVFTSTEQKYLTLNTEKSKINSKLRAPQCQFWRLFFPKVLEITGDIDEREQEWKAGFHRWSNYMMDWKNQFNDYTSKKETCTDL

[3] = Antioxidant activity assessed as trolox equivalent of AAPH radical scavenging activity measured every min for 90 mins by ORAC-FL assay; format: functional
[4] = molecular target: T2, Acetylcholinesterase (Electrophorus electricus, UniProt O42275); test: Inhibition of Electrophorus electricus AChE using acetylthiocholine iodide as substrate incubated for 15 mins by Ellman's method
T2 sequence (O42275 whole entry): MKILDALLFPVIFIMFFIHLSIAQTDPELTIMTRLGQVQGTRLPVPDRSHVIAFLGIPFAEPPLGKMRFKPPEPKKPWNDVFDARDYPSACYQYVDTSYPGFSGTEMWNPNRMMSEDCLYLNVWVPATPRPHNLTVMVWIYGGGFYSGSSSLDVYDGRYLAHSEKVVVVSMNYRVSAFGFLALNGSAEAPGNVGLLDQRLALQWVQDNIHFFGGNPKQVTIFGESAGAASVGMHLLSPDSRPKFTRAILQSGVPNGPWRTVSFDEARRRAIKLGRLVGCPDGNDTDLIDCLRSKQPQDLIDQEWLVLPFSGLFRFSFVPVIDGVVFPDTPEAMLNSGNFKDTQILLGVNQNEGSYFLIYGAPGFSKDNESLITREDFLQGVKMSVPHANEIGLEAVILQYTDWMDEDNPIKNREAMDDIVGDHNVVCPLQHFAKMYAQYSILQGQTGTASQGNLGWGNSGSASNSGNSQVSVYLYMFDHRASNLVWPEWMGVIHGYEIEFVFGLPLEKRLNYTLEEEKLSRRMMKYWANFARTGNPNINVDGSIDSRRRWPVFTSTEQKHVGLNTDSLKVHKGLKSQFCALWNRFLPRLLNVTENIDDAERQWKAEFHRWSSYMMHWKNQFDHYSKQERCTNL

[5] = Permeability of the compound in pH 7.4 PBS/EtOH at 100 ug/ml after 18 hrs by PAMPA-BBB assay; format: ADME; settings: dose 100 µg/ml, read-out: permeability
[6] = test system: Plasma; test: Antiplatelet activity in rat platelet-rich plasma assessed as inhibition of ADP-induced platelet aggregation at 33 uM preincubated for 30 mins followed by ADP addition measured within 5 mins by aggregometry relative to control; format: functional; settings: time 30-35 min
[7] = molecular target: T3, Acetylcholinesterase (Homo sapiens, UniProt P22303); test: Inhibition of human AChE using acetylthiocholine iodide as substrate incubated for 15 mins by Ellman's method
T3 sequence (P22303 whole entry): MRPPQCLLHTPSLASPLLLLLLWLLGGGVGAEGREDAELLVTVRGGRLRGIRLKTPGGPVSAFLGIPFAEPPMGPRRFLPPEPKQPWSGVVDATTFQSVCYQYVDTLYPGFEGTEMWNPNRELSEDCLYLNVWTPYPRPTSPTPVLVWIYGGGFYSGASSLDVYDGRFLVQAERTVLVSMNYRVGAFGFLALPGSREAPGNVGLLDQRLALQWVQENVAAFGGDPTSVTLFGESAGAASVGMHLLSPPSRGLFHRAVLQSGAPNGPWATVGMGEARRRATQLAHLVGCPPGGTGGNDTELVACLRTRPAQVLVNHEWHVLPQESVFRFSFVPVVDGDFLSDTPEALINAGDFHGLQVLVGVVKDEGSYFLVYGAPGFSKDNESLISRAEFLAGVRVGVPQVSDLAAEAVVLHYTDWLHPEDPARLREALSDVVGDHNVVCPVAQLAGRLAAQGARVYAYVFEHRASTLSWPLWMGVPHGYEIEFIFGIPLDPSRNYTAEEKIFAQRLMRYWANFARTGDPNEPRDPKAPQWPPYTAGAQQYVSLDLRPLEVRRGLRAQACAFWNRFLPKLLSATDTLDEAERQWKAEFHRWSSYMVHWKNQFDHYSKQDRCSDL

[8] = molecular target: Amyloid-beta precursor protein (Homo sapiens) (UniProt P05067); test: Inhibition of amyloid beta (1 to 42) (unknown origin) self aggregation at 25 uM after 24 hrs by thioflavin-T fluorescence method relative to control
Sequence of Amyloid-beta precursor protein (Homo sapiens) (P05067 whole entry): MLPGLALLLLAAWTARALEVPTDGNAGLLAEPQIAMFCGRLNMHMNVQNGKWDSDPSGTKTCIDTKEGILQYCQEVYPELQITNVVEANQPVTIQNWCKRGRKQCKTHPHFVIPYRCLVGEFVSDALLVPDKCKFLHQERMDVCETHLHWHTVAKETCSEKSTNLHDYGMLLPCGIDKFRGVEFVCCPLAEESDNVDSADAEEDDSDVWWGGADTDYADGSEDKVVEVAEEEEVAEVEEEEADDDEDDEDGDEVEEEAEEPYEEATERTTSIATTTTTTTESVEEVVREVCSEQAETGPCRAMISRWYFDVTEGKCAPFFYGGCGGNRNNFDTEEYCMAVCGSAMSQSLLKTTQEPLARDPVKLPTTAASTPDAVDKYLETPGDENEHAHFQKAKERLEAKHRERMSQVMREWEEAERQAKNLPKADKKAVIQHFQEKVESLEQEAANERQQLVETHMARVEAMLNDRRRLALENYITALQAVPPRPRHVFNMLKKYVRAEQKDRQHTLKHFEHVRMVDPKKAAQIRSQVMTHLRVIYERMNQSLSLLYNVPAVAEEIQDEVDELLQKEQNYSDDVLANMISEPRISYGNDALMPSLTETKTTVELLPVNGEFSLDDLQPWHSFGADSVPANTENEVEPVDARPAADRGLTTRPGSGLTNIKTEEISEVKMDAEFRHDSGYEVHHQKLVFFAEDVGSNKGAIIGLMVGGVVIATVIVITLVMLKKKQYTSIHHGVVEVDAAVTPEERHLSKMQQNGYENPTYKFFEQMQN

[9] = molecular target: T4, MAO-A (Homo sapiens, UniProt P21397); test: Inhibition of recombinant human MAOA at 10 uM using kynuramine as substrate preincubated for 30 mins followed by substrate addition and measured after 30 mins by fluorescence assay relative to control; settings: probe kynuramine, time 60 min
T4 sequence (P21397 whole entry): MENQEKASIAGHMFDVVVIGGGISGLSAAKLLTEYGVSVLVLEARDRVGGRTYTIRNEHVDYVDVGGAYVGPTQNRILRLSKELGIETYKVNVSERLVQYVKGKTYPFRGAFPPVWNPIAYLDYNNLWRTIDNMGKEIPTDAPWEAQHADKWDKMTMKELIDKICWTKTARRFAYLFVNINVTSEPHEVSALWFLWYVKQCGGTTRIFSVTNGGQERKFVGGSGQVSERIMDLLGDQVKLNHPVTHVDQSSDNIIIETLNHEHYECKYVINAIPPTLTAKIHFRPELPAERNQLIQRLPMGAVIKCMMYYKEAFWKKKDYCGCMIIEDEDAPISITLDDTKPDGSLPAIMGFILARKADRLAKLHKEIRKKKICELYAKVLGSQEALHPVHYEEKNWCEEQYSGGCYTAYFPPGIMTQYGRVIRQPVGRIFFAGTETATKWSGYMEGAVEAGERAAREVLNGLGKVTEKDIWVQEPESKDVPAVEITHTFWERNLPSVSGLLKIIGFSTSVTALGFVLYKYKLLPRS

[10] = Inhibition of Cu2+-induced amyloid beta (1 to 42 residues) aggregation at 25 uM after 24 hrs by thioflavin T-based fluorescence assay relative to control
[11] = molecular target: T3, Acetylcholinesterase; test: Inhibition of human AChE at 10 uM using acetylthiocholine iodide as substrate incubated for 15 mins by Ellman's method relative to control
[12] = molecular target: Amyloid-beta precursor protein (Homo sapiens) (UniProt P05067); test: Disaggregation of self-induced amyloid beta (1 to 42) (unknown origin) preformed fibrils at 25 uM measured after 24 hrs by thioflavin-T fluorescence assay relative to control
[13] = test system: PC-12; test: Neuroprotective activity against H2O2-induced cytotoxicity in rat PC12 cells assessed as increase in cell viability at 10 uM preincubated for 2 hrs followed by H2O2 addition and measured after 24 hrs by MTT assay; format: functional, cell-based; settings: time 26.0 hrs
[14] = test system: PC-12; test: Neuroprotective activity against H2O2-induced cytotoxicity in rat PC12 cells assessed as increase in cell viability at 100 uM preincubated for 2 hrs followed by H2O2 addition and measured after 24 hrs by MTT assay; format: functional, cell-based; settings: time 26.0 hrs
[15] = test system: Plasma; test: Antiplatelet activity in rat platelet-rich plasma assessed as inhibition of ADP-induced platelet aggregation preincubated for 30 mins followed by ADP addition measured within 5 mins by aggregometry; format: functional
[16] = test system: Mus musculus; test: Memory improvement effect in Kunming mouse model of scopolamine-induced memory impairment assessed as reduction in number of errors at 5 mg/kg, ig administered once daily for 7 days followed by scopolamine challenge 30 mins prior to training on day 6 measured on day 7 by passive avoidance test; format: functional, organism-based; settings: time 7.0 day
[17] = test system: Mus musculus; test: Memory improvement effect in Kunming mouse model of scopolamine-induced memory impairment assessed as increase in latency time at 5 mg/kg, ig administered once daily for 7 days followed by scopolamine challenge 30 mins prior to training on day 6 measured on day 7 by passive avoidance test; format: functional, organism-based; settings: time 7.0 day
[18] = test system: Mus musculus; test: Reversal of scopolamine-induced memory impairment in Kunming mouse assessed as increase in ACh level in cerebral cortex at 5 mg/kg, ig administered once daily for 7 days followed by scopolamine challenge 30 mins prior to training trail on day 6 measured on day 7; format: functional, organism-based; settings: time 7.0 day
[19] = Metal chelating activity assessed as mole fraction required to show 1:1 stoichiometry for compound-Cu2+ complex formation measured after 30 mins
[20] = test system: PC-12; test: Cytotoxicity against rat PC-12 cells assessed as effect on cell viability up to 50 uM measured after 2 hrs by MTT assay; format: cell-based; settings: pc-12, 2 h
[21] = test system: PC-12; test: Neuroprotective activity against H2O2-induced cytotoxicity in rat PC12 cells assessed as increase in cell viability preincubated for 2 hrs followed by H2O2 addition and measured after 24 hrs by MTT assay; format: functional, cell-based; settings: dose 1-50 µM, time 26.0 hrs
[22] = molecular target: T1, Amine oxidase [flavin-containing] B; test: Inhibition of recombinant human MAOB using kynuramine as substrate preincubated for 30 mins followed by substrate addition and measured after 30 mins by fluorescence assay
[23] = test system: Mus musculus; test: Memory improvement effect in ig dosed Kunming mouse model of scopolamine-induced memory impairment assessed as reduction in number of errors administered once daily for 7 days followed by scopolamine challenge 30 mins prior to training on day 6 measured on day 7 by passive avoidance test; format: functional, organism-based; settings: dose 0.19-4.75 mg/kg, time 7.0 day
[24] = Cytotoxicity against rat PC-12 cells assessed as cell viability at 100 uM measured after 2 hrs by MTT assay relative to control; format: cell-based; settings: read-out: Activity
[25] = test system: Mus musculus; test: Memory improvement effect in ig dosed Kunming mouse model of scopolamine-induced memory impairment assessed as increase in latency time administered once daily for 7 days followed by scopolamine challenge 30 mins prior to training on day 6 measured on day 7 by passive avoidance test; format: functional, organism-based; settings: dose 0.19-4.75 mg/kg, time 7.0 day
[26] = molecular target: T2, Acetylcholinesterase; test: Competitive inhibition of Electrophorus electricus AChE using varying levels of acetylthiocholine iodide as substrate preincubated for 15 mins followed by substrate addition and measured for 15 mins by Ellman's method based Lineweaver-Burk plot analysis
[27] = test system: PC-12; test: Neuroprotective activity against H2O2-induced cytotoxicity in rat PC12 cells assessed as cell viability at 50 uM preincubated for 2 hrs followed by H2O2 addition and measured after 24 hrs by MTT assay (reference value: 53.1%); format: cell-based; settings: PC-12, 24 h, time 26 hrs, read-out: Activity
[28] = Metal chelating activity assessed as compound-Fe2+ complex formation by measuring induction of red shift at 37.5 uM measured after 2 hrs by UV-visible spectrometric method
[29] = test system: Mus musculus; test: Reversal of scopolamine-induced memory impairment in ig dosed Kunming mouse assessed as increase in ACh level in cerebral cortex administered once daily for 7 days followed by scopolamine challenge 30 mins prior to training trail on day 6 measured on day 7; format: functional, organism-based; settings: dose 0.19-4.75 mg/kg, time 7.0 day
[30] = Metal chelating activity assessed as compound-Cu2+ complex formation by measuring induction of red shift at 37.5 uM measured after 2 hrs by UV-visible spectrometric method
[31] = Metal chelating activity assessed as compound-Zn2+ complex formation by measuring induction of red shift at 37.5 uM measured after 2 hrs by UV-visible spectrometric method
[32] = Metal chelating activity assessed as compound-Al3+ complex formation by measuring induction of blue shift at 37.5 uM measured after 2 hrs by UV-visible spectrometric method
[33] = molecular target: Acetylcholinesterase (Electrophorus electricus) (UniProt O42275); test: Inhibition of Electrophorus electricus AChE at 10 uM using acetylthiocholine iodide as substrate incubated for 15 mins by Ellman's method relative to control
Sequence of Acetylcholinesterase (Electrophorus electricus) (O42275 24-633 limits assumed): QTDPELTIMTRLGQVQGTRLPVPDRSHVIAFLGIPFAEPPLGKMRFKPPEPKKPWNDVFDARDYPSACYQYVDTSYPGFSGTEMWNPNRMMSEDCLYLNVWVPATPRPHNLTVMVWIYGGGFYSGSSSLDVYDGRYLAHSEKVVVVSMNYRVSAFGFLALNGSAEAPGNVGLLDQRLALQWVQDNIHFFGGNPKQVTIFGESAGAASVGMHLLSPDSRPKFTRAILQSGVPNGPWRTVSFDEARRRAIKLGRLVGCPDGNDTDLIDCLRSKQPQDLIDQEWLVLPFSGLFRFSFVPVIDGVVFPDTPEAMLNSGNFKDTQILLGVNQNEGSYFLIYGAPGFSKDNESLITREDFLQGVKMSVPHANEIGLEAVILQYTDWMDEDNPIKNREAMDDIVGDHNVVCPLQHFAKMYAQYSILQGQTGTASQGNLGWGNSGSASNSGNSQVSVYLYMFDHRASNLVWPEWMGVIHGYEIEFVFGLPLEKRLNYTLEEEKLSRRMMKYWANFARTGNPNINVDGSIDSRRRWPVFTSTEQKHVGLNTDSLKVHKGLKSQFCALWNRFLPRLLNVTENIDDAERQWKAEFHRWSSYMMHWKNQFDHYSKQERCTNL

Compound | inhibition at 10 µM [1] [%] | inhibition at […], 10 µM [2] [%] | Activity [3] [equiv] | IC50 [4] [nM] | inhibition at 33 µM [6] [%] | IC50 [7] [nM] | inhibition [8] [%] | inhibition at 0.5 h, 10 µM [9] [%] | inhibition [10] [%] | Activity [12] [%] | other results
COc1cc2c(cc1OC)/C(=C\c1ccc(O)c(N3CCCCC3)c1)OC2=O | 34.8 | 27.6 | 1.95 | 0.0704 | 18.4 | 0.338 | 15.8 | 5.67 |  |  | Papp at 18 h, 100 ug/ml [5]: 11.2 ×10⁻⁶ cm/s
CCCCC1OC(=O)c2ccccc21 (racemic) [RAC-3-N-BUTYLPHTHALIDE] |  | < 5 | 0.2 |  | 9.5 |  |  |  | < 5 | < 5 | inhibition [11]: < 5%; Activity [13]: Active
Cc1c(C)c2c(c(C)c1O)CCC(C)(C(=O)O)O2 (stereo not given) |  |  |  |  |  |  |  |  |  |  | Activity [14]: Active
O=C1CCc2cc(OCCCCc3nnnn3C3CCCCC3)ccc2N1 [CILOSTAZOL] |  |  |  |  |  |  |  |  |  |  | IC50 [15]: 65100 nM
COc1cc(/C=C/C(=O)CC(=O)/C=C/c2ccc(O)c(OC)c2)ccc1O |  |  |  |  |  |  |  |  | 58 | 24.3 | 
COc1cc2c(cc1OC)C(=O)C(CC1CCN(Cc3ccccc3)CC1)C2 (stereo not given) |  |  |  |  |  |  |  |  |  |  | Activity [16]: Active; Activity [17]: Active; Activity [18]: Active
CCN(CC)c1cc(/C=C2/OC(=O)c3cc(OC)c(OC)cc32)ccc1O | 24.9 | 25.1 | 2.62 | 0.307 | 53.8 | 1.28 | 33.6 | < 5 |  |  | 
COc1cc2c(cc1OC)/C(=C/c1ccc(O)c(N3CCCCC3)c1)OC2=O |  | 22.4 | 2.05 | 0.0918 | 32.5 | 0.616 | 34.2 | < 5 | 19.9 | 11.8 | Activity (mole fraction) [19]: 0.88; Activity [20]: Non-Toxic; Activity [21]: Dose-dependent effect; IC50 [22]: 5880 nM; Activity [23]: Dose-dependent effect; viability at 2 h, 100 µM [24]: 81.2%; Activity [25]: Dose-dependent effect; Ki [26]: 0.082 nM; viability at 50 µM [27]: 79%; Activity [28]: Active; Activity [29]: Dose-dependent effect; Activity [30]: Active; Papp at 18 h, 100 ug/ml [5]: 12.3 ×10⁻⁶ cm/s; Activity [31]: Active; Activity [32]: Active
COc1cc2c(cc1OC)/C(=C/c1ccc(N3CCN(C)CC3)c(O)c1)OC2=O |  | < 5 | 1.36 |  |  |  |  | 16.5 |  |  | IC50 [22]: 1550 nM; inhibition [33]: 42.4%
CCN(CC)c1cc(/C=C2\OC(=O)c3cc(OC)c(OC)cc32)ccc1O | 46.2 | 15.7 | 2.14 | 0.383 | 45.1 | 1.55 | 25.9 | < 5 | < 5 | 19.9 | 
